# Assay results from ChEMBL document CHEMBL1268889, “Structural characteristics of thiosemicarbazones as inhibitors of melanogenesis” (Bioorg Med Chem Lett, 2010).
# Assays:
# B16 [1] = assay: Inhibition of melanogenesis in mouse B16 cells at 10 uM; assay type: functional
# B16 [2] = assay: Inhibition of melanogenesis in mouse B16 cells; assay type: functional, cell-based
IC50 (B16 [2]),SMILES,inhibition at 10 µM (B16 [1])
–,CCc1ccc(/C=N/NC(N)=S)cc1,> 100%
1.1 µM,NC(=S)N/N=C\c1cccc2ccccc12,> 100%
15.1 µM,COc1ccc(/C=N/NC(N)=S)cc1,42%
3.4 µM,Cc1ccccc1/C=N/NC(N)=S,> 100%
> 30 µM,N/C(S)=N/N=C/c1ccccn1,15%
> 10 µM,NC(=S)N/N=C/c1ccccc1 [PHENYLTHIOSEMICARBAZONE],< 10%
1.4 µM,NC(=S)N/N=C/c1ccccc1Cl,> 100%
4.2 µM,NC(=S)N/N=C/c1ccc(Cl)cc1,92%
–,Cc1ccc(/C=N/NC(N)=S)cc1,64%
3.4 µM,NC(=S)N/N=C/C1CCCCC1,81%
2.4 µM,NC(=S)N/N=C/c1cccc(Cl)c1,> 100%
2.8 µM,Cc1cccc(/C=N/NC(N)=S)c1,> 100%
15.4 µM,COc1cccc(/C=N/NC(N)=S)c1,40%
21 µM,NC(=S)N/N=C/c1ccccc1O,24%
2.7 µM,CCc1ccccc1/C=N/NC(N)=S,> 100%
